Source: US10329299B2, “Heterocyclic compounds and uses thereof” (Infinity Pharmaceuticals, Inc., priority 2013, dated 2019)

Assays:
PI3K-γ = PI3K-γ (Mus musculus (Mouse), UniProt Q9JHG7); test: PI3K-γ selective cellular assay: phospho-AKT in C5a stimulated RAW264.7 macrophages; type: cell-based; conditions: ratio of RAJI p110 δ assay IC50 to Raw264.7 p110 γ assay IC50
From the text: Cells can be treated with test compounds prior to, simultaneously with, or subsequent to the stimulation by C5a.

[1] = target: γ isoform of human Class I PI3 kinases (Homo sapiens (Human), UniProt P48736); test: PI3-Kinase Promega ADP-Glo Max assay, γ isoform; type: biochemical; conditions: for PI3K δ/PI3K γ IC50 (selectivity): ratio of PI3K δ IC50 to PI3K γ IC50
Sequence of γ isoform of human Class I PI3 kinases (P48736 whole entry, canonical isoform): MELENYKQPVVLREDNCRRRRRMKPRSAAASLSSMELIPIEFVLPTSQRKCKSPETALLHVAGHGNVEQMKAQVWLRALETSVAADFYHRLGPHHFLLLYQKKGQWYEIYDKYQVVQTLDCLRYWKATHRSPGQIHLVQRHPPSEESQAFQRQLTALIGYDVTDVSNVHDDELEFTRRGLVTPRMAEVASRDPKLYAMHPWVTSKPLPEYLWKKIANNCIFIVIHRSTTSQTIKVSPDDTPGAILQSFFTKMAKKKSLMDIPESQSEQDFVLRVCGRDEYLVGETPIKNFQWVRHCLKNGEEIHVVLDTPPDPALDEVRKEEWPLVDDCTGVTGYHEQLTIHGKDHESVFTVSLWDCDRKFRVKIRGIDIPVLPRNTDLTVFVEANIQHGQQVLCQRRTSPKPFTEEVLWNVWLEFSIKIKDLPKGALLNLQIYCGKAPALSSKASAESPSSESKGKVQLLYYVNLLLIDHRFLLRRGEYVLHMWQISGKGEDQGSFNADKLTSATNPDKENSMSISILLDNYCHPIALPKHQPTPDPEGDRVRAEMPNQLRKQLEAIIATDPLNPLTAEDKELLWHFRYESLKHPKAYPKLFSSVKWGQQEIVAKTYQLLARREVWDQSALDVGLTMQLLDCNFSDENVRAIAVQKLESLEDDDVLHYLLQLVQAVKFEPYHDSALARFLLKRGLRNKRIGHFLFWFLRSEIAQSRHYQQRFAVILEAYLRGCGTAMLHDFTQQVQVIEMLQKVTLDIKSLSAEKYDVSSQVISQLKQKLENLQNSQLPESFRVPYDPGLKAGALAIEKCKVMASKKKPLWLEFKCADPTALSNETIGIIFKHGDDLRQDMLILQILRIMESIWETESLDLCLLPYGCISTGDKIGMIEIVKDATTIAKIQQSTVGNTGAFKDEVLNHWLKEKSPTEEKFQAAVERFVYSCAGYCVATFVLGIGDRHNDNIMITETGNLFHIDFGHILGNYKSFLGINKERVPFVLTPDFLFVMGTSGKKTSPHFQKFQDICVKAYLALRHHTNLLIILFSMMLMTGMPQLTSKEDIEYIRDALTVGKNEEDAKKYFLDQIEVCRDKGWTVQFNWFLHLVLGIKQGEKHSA
Method: (§1) Promega ADP-Glo Max assay kit (Cat. No. V7002) was utilized to determine IC50 values for α, β, δ and γ isoforms of human Class I PI3 kinases (Millipore). […] Reactions were incubated at room temperature for 2 hours followed by addition of 25 uL of stop solution. After a 40-minute incubation at room temperature, 50 uL of Promega detection mix was added followed by incubation for 1 hour at room temperature. Plates were then read on Envision plate reader in lunimescence mode. Data was converted to % inhibition using the following equation below:
(§2) [formula] where S is the sample luminescence, Pos is a positive control without added PI3K, Neg is the negative control without added compound. Data was then plotted as % inhibition vs compound concentration.

[2] = target: δ isoform of human Class I PI3 kinases (Homo sapiens (Human), UniProt O00329); test: PI3-Kinase Promega ADP-Glo Max assay, δ isoform; type: biochemical; conditions: read-out: PI3K δ IC50
Sequence of δ isoform of human Class I PI3 kinases (O00329 whole entry, canonical isoform): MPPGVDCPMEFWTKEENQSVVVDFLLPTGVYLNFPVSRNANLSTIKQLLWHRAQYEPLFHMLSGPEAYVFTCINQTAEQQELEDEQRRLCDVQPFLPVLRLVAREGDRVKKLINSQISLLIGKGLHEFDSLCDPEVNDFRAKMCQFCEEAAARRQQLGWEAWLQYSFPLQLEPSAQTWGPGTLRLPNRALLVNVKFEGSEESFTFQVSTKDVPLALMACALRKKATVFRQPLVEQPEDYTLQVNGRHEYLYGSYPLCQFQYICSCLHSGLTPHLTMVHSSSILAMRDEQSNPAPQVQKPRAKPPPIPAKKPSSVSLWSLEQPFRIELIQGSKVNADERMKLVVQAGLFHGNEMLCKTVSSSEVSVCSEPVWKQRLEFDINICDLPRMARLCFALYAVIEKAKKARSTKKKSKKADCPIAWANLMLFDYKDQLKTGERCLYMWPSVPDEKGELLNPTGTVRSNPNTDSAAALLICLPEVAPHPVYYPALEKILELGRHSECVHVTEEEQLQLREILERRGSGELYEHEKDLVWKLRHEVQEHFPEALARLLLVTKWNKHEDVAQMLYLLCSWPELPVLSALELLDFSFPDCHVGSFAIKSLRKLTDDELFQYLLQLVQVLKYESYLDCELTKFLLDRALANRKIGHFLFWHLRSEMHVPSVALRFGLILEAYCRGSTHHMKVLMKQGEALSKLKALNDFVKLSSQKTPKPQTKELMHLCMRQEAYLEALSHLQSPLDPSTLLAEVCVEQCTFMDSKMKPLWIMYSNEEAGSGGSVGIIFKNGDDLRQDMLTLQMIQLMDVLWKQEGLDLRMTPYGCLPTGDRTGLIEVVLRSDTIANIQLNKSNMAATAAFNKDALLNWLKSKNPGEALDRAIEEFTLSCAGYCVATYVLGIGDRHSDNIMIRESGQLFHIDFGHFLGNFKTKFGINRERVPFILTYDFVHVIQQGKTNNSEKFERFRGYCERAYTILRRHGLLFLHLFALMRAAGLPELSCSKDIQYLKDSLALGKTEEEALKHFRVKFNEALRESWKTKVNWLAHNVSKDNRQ
Sequence of δ isoform of human Class I PI3 kinases (P27986 whole entry partner, canonical isoform): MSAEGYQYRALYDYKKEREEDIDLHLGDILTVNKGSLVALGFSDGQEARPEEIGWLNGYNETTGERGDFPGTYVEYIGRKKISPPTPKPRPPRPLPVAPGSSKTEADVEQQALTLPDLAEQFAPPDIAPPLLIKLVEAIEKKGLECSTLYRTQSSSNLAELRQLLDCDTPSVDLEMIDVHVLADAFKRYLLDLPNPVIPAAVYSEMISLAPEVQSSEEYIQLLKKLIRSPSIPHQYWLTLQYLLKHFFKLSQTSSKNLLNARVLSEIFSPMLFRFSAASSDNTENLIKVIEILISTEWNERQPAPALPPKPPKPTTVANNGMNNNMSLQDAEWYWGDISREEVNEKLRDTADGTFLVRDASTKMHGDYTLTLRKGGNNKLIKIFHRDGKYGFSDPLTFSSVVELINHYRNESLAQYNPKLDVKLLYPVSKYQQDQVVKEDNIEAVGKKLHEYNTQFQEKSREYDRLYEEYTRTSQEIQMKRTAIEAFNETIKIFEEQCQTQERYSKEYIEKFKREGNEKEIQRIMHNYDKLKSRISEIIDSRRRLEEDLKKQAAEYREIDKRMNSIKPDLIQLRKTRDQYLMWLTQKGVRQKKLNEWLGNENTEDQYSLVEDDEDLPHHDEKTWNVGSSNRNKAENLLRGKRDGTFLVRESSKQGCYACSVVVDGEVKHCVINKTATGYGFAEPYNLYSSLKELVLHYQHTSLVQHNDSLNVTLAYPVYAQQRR
Method: as §1, §2

[3] = target: β isoform of human Class I PI3 kinases (Homo sapiens (Human), UniProt P42338); test: PI3-Kinase Promega ADP-Glo Max assay, β isoform; type: biochemical; conditions: read-out: PI3K β IC50
Method: as §1, §2

[4] = target: α isoform of human Class I PI3 kinases (Homo sapiens (Human), UniProt P42336); test: PI3-Kinase Promega ADP-Glo Max assay, α isoform; type: biochemical; conditions: read-out: PI3K α IC50
Sequence of α isoform of human Class I PI3 kinases (P42336 whole entry, canonical isoform): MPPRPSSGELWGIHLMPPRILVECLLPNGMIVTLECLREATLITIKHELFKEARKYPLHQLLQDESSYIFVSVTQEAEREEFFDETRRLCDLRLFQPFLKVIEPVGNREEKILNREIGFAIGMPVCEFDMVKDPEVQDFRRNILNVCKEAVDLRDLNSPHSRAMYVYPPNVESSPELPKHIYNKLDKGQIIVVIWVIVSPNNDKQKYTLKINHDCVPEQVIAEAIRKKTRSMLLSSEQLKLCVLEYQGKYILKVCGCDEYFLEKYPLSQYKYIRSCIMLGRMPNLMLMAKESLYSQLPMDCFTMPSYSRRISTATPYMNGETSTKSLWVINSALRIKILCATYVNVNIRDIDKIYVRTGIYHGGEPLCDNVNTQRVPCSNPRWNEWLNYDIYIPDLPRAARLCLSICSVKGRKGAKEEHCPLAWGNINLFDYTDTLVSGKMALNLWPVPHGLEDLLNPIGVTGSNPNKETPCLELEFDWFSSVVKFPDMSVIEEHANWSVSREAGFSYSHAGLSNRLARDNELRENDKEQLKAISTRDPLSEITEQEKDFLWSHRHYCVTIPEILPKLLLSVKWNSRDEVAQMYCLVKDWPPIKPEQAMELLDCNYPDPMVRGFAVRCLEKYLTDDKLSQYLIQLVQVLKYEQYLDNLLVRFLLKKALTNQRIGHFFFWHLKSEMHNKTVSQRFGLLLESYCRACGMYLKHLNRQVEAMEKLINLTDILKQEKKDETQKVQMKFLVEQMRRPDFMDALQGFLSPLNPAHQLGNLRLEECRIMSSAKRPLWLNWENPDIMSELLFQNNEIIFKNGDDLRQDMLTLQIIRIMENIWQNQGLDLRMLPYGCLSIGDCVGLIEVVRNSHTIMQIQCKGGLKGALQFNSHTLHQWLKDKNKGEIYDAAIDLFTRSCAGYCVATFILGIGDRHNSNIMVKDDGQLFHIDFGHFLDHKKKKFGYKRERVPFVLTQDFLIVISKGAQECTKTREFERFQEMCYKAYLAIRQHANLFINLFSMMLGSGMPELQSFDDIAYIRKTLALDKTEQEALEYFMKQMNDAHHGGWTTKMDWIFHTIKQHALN
Sequence of α isoform of human Class I PI3 kinases (P27986 whole entry partner, canonical isoform): as the sequence (P27986 whole entry partner, canonical isoform) above
Method: as §1, §2

PI3K/Akt/mTOR signaling = test: Kinase signaling in blood (phosflow); type: cell-based; conditions: unfractionated splenocytes or peripheral blood mononuclear cells stimulated with anti-CD3
Method: PI3K/Akt/mTOR signaling is measured in blood cells using the phosflow method (Methods Enzymol. (2007) 434:131-54). This method is by nature a single cell assay so that cellular heterogeneity can be detected rather than population averages. This allows concurrent distinction of signaling states in different populations defined by other markers. Phosflow is also highly quantitative. To test the effects of one or more compounds provided herein, unfractionated splenocytes, or peripheral blood mononuclear cells are stimulated with anti-CD3 to initiate T-cell receptor signaling. The cells are then fixed and stained for surface markers and intracellular phosphoproteins. […]
Similarly, aliquots of whole blood are incubated for 15 minutes with vehicle (e.g., 0.1% DMSO) or kinase inhibitors at various concentrations, before addition of stimuli to crosslink the T cell receptor (TCR) (anti-CD3 with secondary antibody) or the B cell receptor (BCR) using anti-kappa light chain antibody (Fab′2 fragments). […] The level of phosphorylation of kinase substrates such as Akt and S6 are then measured by incubating the fixed cells with labeled antibodies specific to the phosphorylated isoforms of these proteins. The population of cells are then analyzed by flow cytometry.

Sequence of PI3K-γ (Q9JHG7 whole entry, canonical isoform): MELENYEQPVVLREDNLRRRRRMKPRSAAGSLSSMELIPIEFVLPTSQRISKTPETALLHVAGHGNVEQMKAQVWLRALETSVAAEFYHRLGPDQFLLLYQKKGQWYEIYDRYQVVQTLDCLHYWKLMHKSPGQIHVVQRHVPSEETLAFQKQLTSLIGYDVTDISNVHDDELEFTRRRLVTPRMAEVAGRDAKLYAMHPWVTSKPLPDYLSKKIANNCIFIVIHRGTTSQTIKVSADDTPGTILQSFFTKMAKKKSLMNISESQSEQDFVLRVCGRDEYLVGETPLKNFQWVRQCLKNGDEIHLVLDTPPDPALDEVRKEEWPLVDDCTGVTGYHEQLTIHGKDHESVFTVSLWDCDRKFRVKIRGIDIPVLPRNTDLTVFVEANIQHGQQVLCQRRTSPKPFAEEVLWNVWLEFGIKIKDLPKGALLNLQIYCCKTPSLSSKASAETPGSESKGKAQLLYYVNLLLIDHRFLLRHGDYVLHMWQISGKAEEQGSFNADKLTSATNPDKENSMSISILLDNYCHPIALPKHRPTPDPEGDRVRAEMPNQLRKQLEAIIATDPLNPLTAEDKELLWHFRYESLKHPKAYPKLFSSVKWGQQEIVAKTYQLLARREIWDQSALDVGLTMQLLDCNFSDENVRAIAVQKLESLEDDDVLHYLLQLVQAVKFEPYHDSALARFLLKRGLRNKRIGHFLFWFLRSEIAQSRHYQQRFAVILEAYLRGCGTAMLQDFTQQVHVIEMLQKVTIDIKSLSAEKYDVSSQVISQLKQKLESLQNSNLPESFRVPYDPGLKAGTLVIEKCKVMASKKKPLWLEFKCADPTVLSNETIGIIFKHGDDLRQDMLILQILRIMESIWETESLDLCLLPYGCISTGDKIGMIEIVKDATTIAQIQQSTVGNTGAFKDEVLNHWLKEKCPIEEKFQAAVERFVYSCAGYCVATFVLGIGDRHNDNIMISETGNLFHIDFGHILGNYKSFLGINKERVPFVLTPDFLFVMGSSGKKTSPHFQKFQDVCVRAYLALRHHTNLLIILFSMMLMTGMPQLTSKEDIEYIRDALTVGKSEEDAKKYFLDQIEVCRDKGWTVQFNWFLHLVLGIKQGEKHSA

SMILES | RAJI δ/Raw264.7 γ IC50 (selectivity) (PI3K-γ) | PI3K δ/PI3K γ IC50 (selectivity) [1] | also measured
C[C@H](NC(=O)c1c(N)nn2cccnc12)c1cc2cccc(C#Cc3cn[nH]c3)c2c(=O)n1-c1ccccc1 [Compound 80] | Y (Y = 50 to <850) | Y (Y = 50 to <850) | –
C/C=C/c1cccc2cc([C@H](C)NC(=O)c3c(N)nn4cccnc34)n(-c3ccccc3)c(=O)c12 [Compound 70] | – | X (X = 10 to <50) | –
C[C@H](NC(=O)c1c(N)nn2cccnc12)c1cc2cccc(C#Cc3ccn[nH]3)c2c(=O)n1-c1ccccc1 [Compound 43] | X (X = 10 to <50) | Y (Y = 50 to <850) | IC50 [2]: 5 to 10 µM; IC50 [3]: 5 to 10 µM; IC50 [4]: 5 to 10 µM; IC50 ([1]; read-out: PI3K γ IC50): 0.1 to 0.5 µM
C[C@H](NC(=O)c1c(N)nn2cccnc12)c1cc2cccc(NC(=O)c3cnn(C)c3)c2c(=O)n1-c1ccccc1 [Compound 90] | X (X = 10 to <50) | W (W = >1 to <10) | –
Cc1c(C#Cc2cccc3nc([C@H](C)NC(=O)c4c(N)nn5cccnc45)n(-c4ccccc4)c(=O)c23)cnn1C [Compound 88, (S)-2-amino-N-(1-(5-((1,5-dimethyl-1H-pyrazol-4-yl)ethynyl)-4-oxo-3-phenyl-3,4-dihydroquinazolin-2-yl)ethyl)pyrazolo[1,5-a]pyrimidine-3-carboxamide] | Y (Y = 50 to <850) | X (X = 10 to <50) | –
CC(=O)N1CCC(C#Cc2cccc3cc([C@H](C)NC(=O)c4c(N)nn5cccnc45)n(-c4ccccc4)c(=O)c23)CC1 [Compound 82] | X (X = 10 to <50) | X (X = 10 to <50) | –
CO[C@H]1C[C@@H]2CC[C@@H](C)[C@@](O)(O2)C(=O)C(=O)N2CCCC[C@H]2C(=O)O[C@H]([C@H](C)C[C@@H]2CC[C@@H](O)[C@H](OC)C2)CC(=O)[C@H](C)/C=C(\C)[C@@H](O)[C@@H](OC)C(=O)[C@H](C)C[C@H](C)/C=C/C=C/C=C/1C [rapamycin] | – | – | anti-CD3 mediated phosphorylation of Akt-S473 (PI3K/Akt/mTOR signaling): enhances; anti-CD3 mediated phosphorylation of S6 (PI3K/Akt/mTOR signaling): inhibits
C[C@H](NC(=O)c1c(N)nn2cccnc12)c1cc2cccc(C#CC3CCN(S(C)(=O)=O)CC3)c2c(=O)n1-c1ccccc1 [Compound 83] | X (X = 10 to <50) | X (X = 10 to <50) | –
C[C@H](NC(=O)c1c(N)nn2cccnc12)c1cc2cccc(C#CC3CNC3)c2c(=O)n1-c1ccccc1 [Compound 74] | W (W = >1 to <10) | W (W = >1 to <10) | –
C[C@H](NC(=O)c1c(N)nn2cccnc12)c1cc2cccc(C#CC=O)c2c(=O)n1-c1ccccc1 [Compound 36] | W (W = >1 to <10) | X (X = 10 to <50) | –
